Consider nine molecules from patent US9133183B2, “Imidazolidinones and analogs exhibiting anti-cancer and anti-proliferative activities” (Deciphera Pharmaceuticals, LLC, priority 2013, dated 2015).

pIC50: −log10 of the molar value. Where two headings read alike, the source gives them in different places.

Test [1] relates to M-NFS-60 cells. Put plainly: M-NFS-60 cell proliferation assay (resazurin). The following applies: 67 h incubation. The class given is cell-based. Here is the method: M-NFS-60 cells (catalog #CRL-1838) were obtained from the American Type Culture Collection (ATCC, Manassas, Va.). Briefly, cells were grown in suspension in RPMI 1640 medium supplemented with 10% characterized fetal bovine serum (Invitrogen, Carlsbad, Calif.), 0.05 mM 2-mercaptoethanol, and 20 ng/mL mouse recombinant macrophage colony stimulating factor (M-CSF) at 37° C., 5% CO2, and 95% humidity. Cells were allowed to expand until reaching saturation at which point they were subcultured or harvested for assay use.
M-NFS-60 Cell Proliferation Assay
A serial dilution of test compound was dispensed into a 384-well black clear bottom plate (Corning, Corning, N.Y.). Two thousand five hundred cells were added per well in 50 μL complete growth medium. Plates were incubated for 67 h at 37° C., 5% CO2, and 95% humidity. At the end of the incubation period 10 μL of a 440 μM solution of resazurin (Sigma, St. Louis, Mo.) in PBS was added to each well and incubated for an additional 5 h at 37° C., 5% CO2, and 95% humidity. Plates were read on a Synergy2 reader (Biotek, Winooski, Vt.) using an excitation of 540 nm and an emission of 600 nm. IC50 values were calculated from a series of percent inhibition values determined at a range of inhibitor concentrations using software routines as implemented in the GraphPad Prism software package.

For test [2], the system named is osteoclast precursors. Put plainly: Osteoclast tartrate-resistant acid phosphatase assay. The class given is cell-based. The following applies: Osteoclast, 7-14 days, RANKL and M-CSF. Here is the method: Osteoclast Tartrate-Resistant Acid Phosphatase Assay
A serial dilution of test compound was dispensed into a 384-well black clear bottom plate (Nalge Nunc International, Rochester, N.Y.). Compound was diluted by the addition of DMEM media supplemented with 10% characterized fetal bovine serum (Invitrogen, Carlsbad, Calif.). Diluted compound was transferred to a 384-well black clear bottom plate. Two-thousand five hundred osteoclast precursors (Lonza, Walkersville, Md.) were added per well in growth media containing Receptor Activator of Nuclear Factor Kappa-beta ligand (RANKL) and M-CSF (R&D Systems, Minneapolis, Minn.). Plates were incubated for 7-14 days at 37 degrees Celsius, 5% CO2, and 95% humidity to allow differentiation of osteoclast precursors. At the end of the incubation period, 10 μL of supernatant from each well was transferred to a clear 384-well plate. Tartrate-resistant acid phosphatase activity in the supernatant samples was determined using an acid phosphatase assay kit (Sigma, St. Louis, Mo.). Absorbance was measured at 550 nm using a plate reader. Data was analyzed using Prism software (Graphpad, San Diego, Calif.) to calculate IC50 values.

Test [3] deals with unphosphorylated c-FMS kinase (uFMS, Seq. ID no. 1) (Homo sapiens (Human), UniProt P07333). Put plainly: uFMS kinase assay (ADP production coupled to pyruvate kinase/lactate dehydrogenase). The settings on record: enzymatic assay, ATP 500 μM. The class given is biochemical. Here is the method:
uFMS kinase (Seq. ID No. 1) Assay
In this assay, the oxidation of NADH (thus the decrease at A340 nm) was continuously monitored spectrophometrically. The reaction mixture (100 μL) contained FMS (purchased from Millipore) (10 nM), polyE4Y (1 mg/mL), MgCl2 (10 mM), pyruvate kinase (4 units), lactate dehydrogenase (0.7 units), phosphoenol pyruvate (1 mM), NADH (0.28 mM) and ATP (500 μM) in 90 mM Tris buffer containing 0.2% octyl-glucoside and 1% DMSO, pH 7.5. The inhibition reaction was started by mixing serial diluted test compound with the above reaction mixture. The absorption at 340 nm was monitored continuously for 4 hours at 30° C. on Synergy 2 plate reader. The reaction rate was calculated using the 3 to 4 h time frame. Percent inhibition was obtained by comparison of reaction rate with that of a control (i.e., in the absence of test compound). IC50 values were calculated from a series of percent inhibition values determined at a range of inhibitor concentrations using software routines as implemented in the GraphPad Prism software package.
uFMS Kinase Sequence (Y538-End) Used for Screening (Seq. ID No. 1)

Chain of unphosphorylated c-FMS kinase (uFMS, Seq. ID no. 1) (P07333 538-972): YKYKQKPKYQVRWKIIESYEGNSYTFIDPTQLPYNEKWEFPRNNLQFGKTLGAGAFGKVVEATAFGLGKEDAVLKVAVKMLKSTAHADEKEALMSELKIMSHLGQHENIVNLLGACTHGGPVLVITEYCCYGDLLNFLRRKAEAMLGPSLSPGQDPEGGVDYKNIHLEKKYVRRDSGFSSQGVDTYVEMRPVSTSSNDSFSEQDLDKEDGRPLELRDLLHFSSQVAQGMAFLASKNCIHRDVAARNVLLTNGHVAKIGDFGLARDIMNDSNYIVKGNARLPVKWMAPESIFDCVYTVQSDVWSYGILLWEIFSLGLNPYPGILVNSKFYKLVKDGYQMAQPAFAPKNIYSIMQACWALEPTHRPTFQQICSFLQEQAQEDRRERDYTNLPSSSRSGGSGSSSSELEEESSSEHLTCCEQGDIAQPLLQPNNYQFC

For `Cn1cc(-c2cc(Oc3ccc(NC(=O)N4CCN(C5CCOCC5)C4=O)c(F)c3)ccn2)cn1` [Example 95, N-(2-fluoro-4-((2-(1-methyl-1H-pyrazol-4-yl)pyridin-4-yl)oxy)phenyl)-2-oxo-3-(tetrahydro-2H-pyran-4-yl)imidazolidine-1-carboxamide], the pIC50 in test [1], in test [2] and in test [3] (read-out: uFMS) was 7.00 to 8.00 in each case.

With `COC1(CCN2CCN(C(=O)Nc3cc(Cl)c(Oc4ccnc(-c5cnn(C)c5)c4)cc3F)C2=O)CC1` [Example 99, N-(5-chloro-2-fluoro-4-((2-(1-methyl-1H-pyrazol-4-yl)pyridin-4-yl)oxy)phenyl)-3-(2-(1-methoxycyclopropyl)ethyl)-2-oxoimidazolidine-1-carboxamide], the pIC50 in test [1], in test [2] and in test [3] (read-out: uFMS) was 7.00 to 8.00 each time.

Take `Cn1cc(-c2cc(Oc3ccc(NC(=O)N4CCN(C5CCOCC5)C4=O)cc3F)ccn2)cn1` [Example 102, N-(3-fluoro-4-((2-(1-methyl-1H-pyrazol-4-yl)pyridin-4-yl)oxy)phenyl)-2-oxo-3-(tetrahydro-2H-pyran-4-yl)imidazolidine-1-carboxamide]: the pIC50 in test [1] is under 6.00; in test [2], 6.00 to 7.00; in test [3] (read-out: uFMS) it was 7.00 to 8.00.

`Cn1cc(-c2cc(Oc3ccc(NC(=O)N4CCN(C5CCOC(C)(C)C5)C4=O)nc3)ccn2)cn1` (centres unmarked) [Example 13, 3-(2,2-dimethyltetrahydro-2H-pyran-4-yl)-N-(5-((2-(1-methyl-1H-pyrazol-4-yl)pyridin-4-yl)oxy)pyridin-2-yl)-2-oxoimidazolidine-1-carboxamide]: the pIC50 in test [1] is 6.00 to 7.00; in test [2], 7.00 to 8.00; in test [3] (read-out: uFMS), 7.00 to 8.00.

Take `COC1(CCN2CCN(C(=O)Nc3ccc(Oc4ccnc(-c5cnn(C)c5)c4)cn3)C2=O)CC1` [Example 17, 3-(2-(1-methoxycyclopropyl)ethyl)-N-(5-((2-(1-methyl-1H-pyrazol-4-yl)pyridin-4-yl)oxy)pyridin-2-yl)-2-oxoimidazolidine-1-carboxamide]: the pIC50 in test [1], in test [2] and in test [3] (uFMS) was 7.00 to 8.00 in each case.

`COCCN1CCN(C(=O)Nc2cc(Cl)c(Oc3ccnc(-c4cnn(C)c4)c3)cc2F)C1=O` [Example 100, N-(5-chloro-2-fluoro-4-((2-(1-methyl-1H-pyrazol-4-yl)pyridin-4-yl)oxy)phenyl)-3-(2-methoxyethyl)-2-oxoimidazolidine-1-carboxamide]: the pIC50 is 6.00 to 7.00 in test [1], 7.00 to 8.00 in test [2] and 7.00 to 8.00 in test [3] (read-out: uFMS).

As to `Cc1c(Oc2ccnc(-c3cnn(C)c3)c2)ccc(NC(=O)N2CCN(C3CCOCC3)C2=O)c1F` [Example 93, N-(2-fluoro-3-methyl-4-((2-(1-methyl-1H-pyrazol-4-yl)pyridin-4-yl)oxy)phenyl)-2-oxo-3-(tetrahydro-2H-pyran-4-yl)imidazolidine-1-carboxamide], the pIC50 in test [1] is 6.00 to 7.00; in test [2], 7.00 to 8.00; in test [3] (read-out: uFMS) it was 7.00 to 8.00.

In the case of `COCCN1CCN(C(=O)Nc2cc(F)c(Oc3ccnc(-c4cnn(C)c4)c3)cc2F)C1=O` [Example 98, N-(2,5-difluoro-4-((2-(1-methyl-1H-pyrazol-4-yl)pyridin-4-yl)oxy)phenyl)-3-(2-methoxyethyl)-2-oxoimidazolidine-1-carboxamide], the pIC50 in test [1] was 6.00 to 7.00; in test [2], 7.00 to 8.00; in test [3] (read-out: uFMS), 6.00 to 7.00.

As for `[2H]C([2H])([2H])n1cc(-c2cc(Oc3ccc(NC(=O)N4CCN(C5CCOCC5)C4=O)nc3)ccn2)cn1` [Example 6, 2-oxo-3-(tetrahydro-2H-pyran-4-yl)-N-(5-((2-(1-(trideuteromethyl)-1H-pyrazol-4-yl)pyridin-4-yl)oxy)pyridin-2-yl)imidazolidine-1-carboxamide], the pIC50 in test [1] and in test [3] (read-out: uFMS) was 7.00 to 8.00 in each case.
